According to patent US20250304596A1, “PYRAZINE DERIVATIVES AND USES THEREOF” (FOGHORN THERAPEUTICS INC., priority 2022, published 2025):

Legend:
HiBit-BRM fusion protein = molecular target: T1, HiBit-BRM fusion protein (Homo sapiens, UniProt P51531); experiment: HiBiT-BRM cell-based degradation assay (Nano-Glo HiBiT Lytic Detection, 24 h); settings: stable HeLa cell line expressing HiBiT-BRM; for DC50: read-out: BRM HiBit Degradation IC50
T1 construct: expressed in transfected cells
Outline: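 A stable HeLa line expressing HiBiT-BRM was treated for 24 h with compound in a 10-point, 3-fold series (30 μM final top dose). Remaining HiBiT-BRM was read by lytic LgBiT complementation luminescence. % degradation was normalised to DMSO (high control) and 2 μM reference BRM/BRG1 degrader (low control).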

[1] = molecular target: T2, HiBit-BRG1 fusion protein (Homo sapiens, UniProt P51532); experiment: HiBiT-BRG1 cell-based degradation assay (Nano-Glo HiBiT Lytic Detection, 24 h); settings: stable HeLa cell line expressing HiBit-BRG1 and LgBit; for Dmax: read-out: BRG1 HiBit Degradation Maximum (%); for DC50: read-out: BRMG1 HiBit Degradation IC50
T2 construct: expressed in transfected cells
Outline: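 HeLa cells stably expressing HiBit-BRG1 and LgBit, treated 24 h with 3-fold dilutions (10 points, duplicate, 30 μM final top dose). Luminescence read after Nano-Glo HiBiT lytic reagent; % degradation scaled between DMSO (high) and 2 μM reference BRM/BRG1 degrader (low control).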

T1 sequence (P51531 whole entry, the tested form may be a part): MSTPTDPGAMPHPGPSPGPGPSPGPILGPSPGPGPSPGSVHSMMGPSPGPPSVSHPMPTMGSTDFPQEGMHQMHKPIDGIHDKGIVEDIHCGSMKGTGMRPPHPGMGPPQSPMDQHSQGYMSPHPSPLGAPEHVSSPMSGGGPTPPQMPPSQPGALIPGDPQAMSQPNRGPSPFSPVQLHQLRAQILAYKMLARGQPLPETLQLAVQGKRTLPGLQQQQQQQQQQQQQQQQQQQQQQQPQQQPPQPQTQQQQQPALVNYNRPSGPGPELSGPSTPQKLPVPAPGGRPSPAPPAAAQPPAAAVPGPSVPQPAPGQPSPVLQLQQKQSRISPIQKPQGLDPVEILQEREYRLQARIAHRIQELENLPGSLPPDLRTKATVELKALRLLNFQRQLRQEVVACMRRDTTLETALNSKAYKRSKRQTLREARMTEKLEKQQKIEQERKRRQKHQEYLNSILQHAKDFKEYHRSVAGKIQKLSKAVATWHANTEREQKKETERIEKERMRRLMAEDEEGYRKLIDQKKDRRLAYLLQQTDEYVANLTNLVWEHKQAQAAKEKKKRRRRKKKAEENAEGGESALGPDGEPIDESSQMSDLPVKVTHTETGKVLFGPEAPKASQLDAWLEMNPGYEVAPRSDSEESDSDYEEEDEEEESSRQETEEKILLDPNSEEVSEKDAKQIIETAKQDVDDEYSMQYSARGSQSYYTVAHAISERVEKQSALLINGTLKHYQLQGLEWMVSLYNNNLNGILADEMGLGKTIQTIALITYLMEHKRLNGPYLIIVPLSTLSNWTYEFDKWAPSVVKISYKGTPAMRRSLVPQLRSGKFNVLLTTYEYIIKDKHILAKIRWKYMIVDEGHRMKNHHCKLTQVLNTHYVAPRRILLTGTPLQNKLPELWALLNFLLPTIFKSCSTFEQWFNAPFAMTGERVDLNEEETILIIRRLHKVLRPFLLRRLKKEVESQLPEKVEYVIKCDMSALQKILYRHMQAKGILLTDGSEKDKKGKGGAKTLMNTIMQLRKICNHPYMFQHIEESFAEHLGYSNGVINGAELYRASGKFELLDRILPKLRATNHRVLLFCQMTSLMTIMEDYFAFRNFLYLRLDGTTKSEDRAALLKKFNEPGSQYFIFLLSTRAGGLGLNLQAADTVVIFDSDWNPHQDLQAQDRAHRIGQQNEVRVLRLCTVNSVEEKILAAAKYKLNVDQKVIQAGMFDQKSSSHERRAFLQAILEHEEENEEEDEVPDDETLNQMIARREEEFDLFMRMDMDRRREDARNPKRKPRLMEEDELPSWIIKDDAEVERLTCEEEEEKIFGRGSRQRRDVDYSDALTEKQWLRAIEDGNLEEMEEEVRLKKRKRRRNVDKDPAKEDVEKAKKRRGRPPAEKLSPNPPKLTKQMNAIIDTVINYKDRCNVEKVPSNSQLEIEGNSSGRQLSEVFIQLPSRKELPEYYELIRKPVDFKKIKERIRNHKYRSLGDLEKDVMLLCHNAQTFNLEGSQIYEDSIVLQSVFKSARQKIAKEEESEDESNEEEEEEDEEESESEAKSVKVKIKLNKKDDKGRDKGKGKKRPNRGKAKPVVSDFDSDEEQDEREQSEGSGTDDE
T2 sequence (P51532 whole entry, the tested form may be a part): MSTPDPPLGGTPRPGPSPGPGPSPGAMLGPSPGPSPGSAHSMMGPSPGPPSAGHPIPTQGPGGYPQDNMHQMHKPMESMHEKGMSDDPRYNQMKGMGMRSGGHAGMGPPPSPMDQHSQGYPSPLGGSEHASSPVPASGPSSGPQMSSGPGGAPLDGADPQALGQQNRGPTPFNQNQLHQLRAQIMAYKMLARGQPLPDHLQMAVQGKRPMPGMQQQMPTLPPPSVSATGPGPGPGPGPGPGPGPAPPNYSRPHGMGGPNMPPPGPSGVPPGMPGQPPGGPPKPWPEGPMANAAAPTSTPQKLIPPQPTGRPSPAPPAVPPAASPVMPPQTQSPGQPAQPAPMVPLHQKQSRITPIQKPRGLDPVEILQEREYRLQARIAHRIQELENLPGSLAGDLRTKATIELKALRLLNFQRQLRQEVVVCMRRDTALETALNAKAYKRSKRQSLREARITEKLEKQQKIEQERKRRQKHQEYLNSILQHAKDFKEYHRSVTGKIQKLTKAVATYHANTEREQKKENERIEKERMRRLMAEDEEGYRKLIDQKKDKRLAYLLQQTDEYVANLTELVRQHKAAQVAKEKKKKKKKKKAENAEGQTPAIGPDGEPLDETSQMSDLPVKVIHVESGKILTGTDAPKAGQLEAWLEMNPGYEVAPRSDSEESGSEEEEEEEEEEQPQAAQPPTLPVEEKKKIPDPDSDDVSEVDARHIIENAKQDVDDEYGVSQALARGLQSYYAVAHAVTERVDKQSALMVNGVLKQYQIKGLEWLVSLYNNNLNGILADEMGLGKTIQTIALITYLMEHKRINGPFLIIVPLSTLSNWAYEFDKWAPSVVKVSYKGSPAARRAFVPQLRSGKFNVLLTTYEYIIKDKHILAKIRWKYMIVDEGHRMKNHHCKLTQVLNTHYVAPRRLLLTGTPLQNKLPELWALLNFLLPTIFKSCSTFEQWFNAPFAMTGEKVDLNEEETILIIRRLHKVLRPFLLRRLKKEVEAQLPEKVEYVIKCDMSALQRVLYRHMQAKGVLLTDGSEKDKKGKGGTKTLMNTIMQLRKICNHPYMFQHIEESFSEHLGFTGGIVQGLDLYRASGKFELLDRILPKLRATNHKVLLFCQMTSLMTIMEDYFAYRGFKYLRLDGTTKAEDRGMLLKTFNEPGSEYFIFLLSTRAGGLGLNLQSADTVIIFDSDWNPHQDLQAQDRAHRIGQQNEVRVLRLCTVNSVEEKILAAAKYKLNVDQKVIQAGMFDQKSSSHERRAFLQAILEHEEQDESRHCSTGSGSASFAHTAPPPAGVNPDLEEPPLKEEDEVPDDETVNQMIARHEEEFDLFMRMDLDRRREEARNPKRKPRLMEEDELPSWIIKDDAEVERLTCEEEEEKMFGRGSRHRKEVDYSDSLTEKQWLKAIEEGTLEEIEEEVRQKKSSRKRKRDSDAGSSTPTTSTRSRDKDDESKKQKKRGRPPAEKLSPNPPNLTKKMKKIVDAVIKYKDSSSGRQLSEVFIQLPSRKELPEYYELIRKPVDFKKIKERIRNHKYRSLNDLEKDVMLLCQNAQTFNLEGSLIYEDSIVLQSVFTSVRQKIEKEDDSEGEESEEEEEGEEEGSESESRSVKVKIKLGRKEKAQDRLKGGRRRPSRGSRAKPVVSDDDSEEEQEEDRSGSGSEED

| SMILES | DC50 (HiBit-BRM fusion protein) [nM] | Dmax [1] [%] | DC50 [1] [nM] | BRM HiBit Degradation Maximum (%) (HiBit-BRM fusion protein) |
| --- | --- | --- | --- | --- |
| Cc1ncsc1-c1ccc([C@H](C)NC(=O)[C@@H]2C[C@@H](O)CN2C(=O)[C@@H](c2cc(N3CCC(c4sc5nnc(-c6ccccc6O)cc5c4C)CC3)no2)C(C)C)cc1 [Compound 56, (2S,4R)-4-hydroxy-1-((R)-2-(3-(4-(3-(2-hydroxyphenyl)-5-methylthieno[2,3-c]pyridazin-6-yl)piperidin-1-yl)isoxazol-5-yl)-3-methylbutanoyl)-N-((S)-1-(4-(4-methylthiazol-5-yl)phenyl)ethyl)pyrrolidine-2-carboxamide] | > 10 | < 50 | > 1000 | B (“B” indicates maximum degradation ≥50%) |
| Cc1ncsc1-c1ccc([C@H](C)NC(=O)[C@@H]2C[C@@H](O)CN2C(=O)[C@@H](c2cc(-c3cnc(N4CC5(CC(c6cc7nnc(-c8ccccc8O)cc7s6)C5)C4)nc3)no2)C(C)C)cc1 [Compound 17, (2S,4R)-4-hydroxy-1-((R)-2-(3-(2-(6-(3-(2-hydroxyphenyl)thieno[3,2-c]pyridazin-6-yl)-2-azaspiro[3.3]heptan-2-yl)pyrimidin-5-yl)isoxazol-5-yl)-3-methylbutanoyl)-N-((S)-1-(4-(4-methylthiazol-5-yl)phenyl)ethyl)pyrrolidine-2-carboxamide] | < 10 | > 75 | > 10 | A (“A” indicates maximum degradation ≥75%) |
| Cc1ncsc1-c1ccc([C@H](C)NC(=O)[C@@H]2C[C@@H](O)CN2C(=O)[C@@H](c2cc(N3CCC4(CC3)CC(c3cc5cc(-c6ccccc6O)nnc5s3)C4)no2)C(C)C)cc1 [Compound 98, (2S,4R)-4-hydroxy-1-((R)-2-(3-(2-(3-(2-hydroxyphenyl)thieno[2,3-c]pyridazin-6-yl)-7-azaspiro[3.5]nonan-7-yl)isoxazol-5-yl)-3-methylbutanoyl)-N-((S)-1-(4-(4-methylthiazol-5-yl)phenyl)ethyl)pyrrolidine-2-carboxamide] | > 10 | > 75 | > 100 | A (“A” indicates maximum degradation ≥75%) |
| Cc1ncsc1-c1ccc([C@H](C)NC(=O)[C@@H]2C[C@@H](O)CN2C(=O)[C@@H](c2cc(N3CC(c4sc5nnc(-c6ccccc6O)cc5c4C)C3)no2)C(C)C)cc1 [Compound 19, (2S,4R)-4-hydroxy-1-((R)-2-(3-(3-(3-(2-hydroxyphenyl)-5-methylthieno[2,3-c]pyridazin-6-yl)azetidin-1-yl)isoxazol-5-yl)-3-methylbutanoyl)-N-((S)-1-(4-(4-methylthiazol-5-yl)phenyl)ethyl)pyrrolidine-2-carboxamide] | > 1000 | < 50 | > 1000 | 2% |
| Cc1ncsc1-c1ccc([C@H](C)NC(=O)[C@@H]2C[C@@H](O)CN2C(=O)[C@@H](c2cc(-c3cnc(N4C[C@H]5C[C@@H]4C[C@@H]5c4cc5cc(-c6ccccc6O)nnc5s4)nc3)no2)C(C)C)cc1 [Compound 22, (2S,4R)-4-hydroxy-1-((R)-2-(3-(2-((1R,4S,5S)-5-(3-(2-hydroxyphenyl)thieno[2,3-c]pyridazin-6-yl)-2-azabicyclo[2.2.1]heptan-2-yl)pyrimidin-5-yl)isoxazol-5-yl)-3-methylbutanoyl)-N-((S)-1-(4-(4-methylthiazol-5-yl)phenyl)ethyl)pyrrolidine-2-carboxamide] | < 10 | < 50 | > 1000 | A (“A” indicates maximum degradation ≥75%) |
| Cc1ncsc1-c1ccc([C@H](C)NC(=O)[C@@H]2C[C@@H](O)CN2C(=O)[C@@H](c2cc(N3CC4(CCC(c5sc6nnc(-c7ccccc7O)cc6c5C)CC4)C3)no2)C(C)C)cc1 [Compound 88, (2S,4R)-4-hydroxy-1-((R)-2-(3-(7-(3-(2-hydroxyphenyl)-5-methylthieno[2,3-c]pyridazin-6-yl)-2-azaspiro[3.5]nonan-2-yl)isoxazol-5-yl)-3-methylbutanoyl)-N-((S)-1-(4-(4-methylthiazol-5-yl)phenyl)ethyl)pyrrolidine-2-carboxamide] | < 10 | > 75 | > 10 | A (“A” indicates maximum degradation ≥75%) |
| Cc1ncsc1-c1ccc([C@H](C)NC(=O)[C@@H]2C[C@@H](O)CN2C(=O)[C@@H](c2cc(-c3ccc(N4CCC(c5sc6nnc(-c7ccccc7O)cc6c5C)CC4)nn3)no2)C(C)C)cc1 [Compound 57, (2S,4R)-4-hydroxy-1-((R)-2-(3-(6-(4-(3-(2-hydroxyphenyl)-5-methylthieno[2,3-c]pyridazin-6-yl)piperidin-1-yl)pyridazin-3-yl)isoxazol-5-yl)-3-methylbutanoyl)-N-((S)-1-(4-(4-methylthiazol-5-yl)phenyl)ethyl)pyrrolidine-2-carboxamide] | < 10 | < 50 | > 1000 | A (“A” indicates maximum degradation ≥75%) |
| Cc1ncsc1-c1ccc([C@H](C)NC(=O)[C@@H]2C[C@@H](O)CN2C(=O)[C@@H](c2cc(N3CC4(CC(c5cc6cc(-c7ccccc7O)nnc6s5)C4)C3)no2)C(C)C)cc1 (single isomer, unassigned) [Compound 1] | < 10 | > 75 | > 10 | A (“A” indicates maximum degradation ≥75%) |
| Cc1ncsc1-c1ccc([C@H](C)NC(=O)[C@@H]2C[C@@H](O)CN2C(=O)[C@@H](c2cc(N3CC4(CC(c5cc6nnc(-c7ccccc7O)cc6s5)C4)C3)no2)C(C)C)cc1 [Compound 69, (2S,4R)-4-hydroxy-1-((R)-2-(3-(6-(3-(2-hydroxyphenyl)thieno[3,2-c]pyridazin-6-yl)-2-azaspiro[3.3]heptan-2-yl)isoxazol-5-yl)-3-methylbutanoyl)-N-((S)-1-(4-(4-methylthiazol-5-yl)phenyl)ethyl)pyrrolidine-2-carboxamide] | < 10 | > 75 | < 10 | A (“A” indicates maximum degradation ≥75%) |
| Cc1ncsc1-c1ccc([C@H](C)NC(=O)[C@@H]2C[C@@H](O)CN2C(=O)[C@@H](c2cc(N3CCC4(CC3)CC(c3cc5nnc(-c6ccccc6O)cc5s3)C4)no2)C(C)C)cc1 [Compound 12, (2S,4R)-4-hydroxy-1-((R)-2-(3-(2-(3-(2-hydroxyphenyl)thieno[3,2-c]pyridazin-6-yl)-7-azaspiro[3.5]nonan-7-yl)isoxazol-5-yl)-3-methylbutanoyl)-N—((S)-1-(4-(4-methylthiazol-5-yl)phenyl)ethyl)pyrrolidine-2-carboxamide] | < 10 | > 50 | > 100 | A (“A” indicates maximum degradation ≥75%) |

Now from value to compound, other results behind:

| DC50 (HiBit-BRM fusion protein) [nM] | Dmax [1] [%] | DC50 [1] [nM] | SMILES | BRM HiBit Degradation Maximum (%) (HiBit-BRM fusion protein) |
| --- | --- | --- | --- | --- |
| < 10 | < 50 | > 1000 | Cc1ncsc1-c1ccc([C@H](C)NC(=O)[C@@H]2C[C@@H](O)CN2C(=O)[C@@H](c2cc(-c3cnc(N4CC[C@H](c5sc6nnc(-c7ccccc7O)cc6c5C)C[C@@H]4C)nc3)no2)C(C)C)cc1 [Compound 27, (2S,4R)-4-hydroxy-1-((R)-2-(3-(2-((2S,4S)-4-(3-(2-hydroxyphenyl)-5-methylthieno[2,3-c]pyridazin-6-yl)-2-methylpiperidin-1-yl)pyrimidin-5-yl)isoxazol-5-yl)-3-methylbutanoyl)-N-((S)-1-(4-(4-methylthiazol-5-yl)phenyl)ethyl)pyrrolidine-2-carboxamide] | A (“A” indicates maximum degradation ≥75%) |
| < 10 | < 50 | – | Cc1ncsc1-c1ccc([C@H](C)NC(=O)[C@@H]2C[C@@H](O)CN2C(=O)[C@@H](c2cc(-c3cnc(N4CC[C@H](c5sc6nnc(-c7ccccc7O)cc6c5C5CC5)C4)nc3)no2)C(C)C)cc1 [Compound 76, (2S,4R)-1-((R)-2-(3-(2-((S)-3-(5-cyclopropyl-3-(2-hydroxyphenyl)thieno[2,3-c]pyridazin-6-yl)pyrrolidin-1-yl)pyrimidin-5-yl)isoxazol-5-yl)-3-methylbutanoyl)-4-hydroxy-N-((S)-1-(4-(4-methylthiazol-5-yl)phenyl)ethyl)pyrrolidine-2-carboxamide] | A (“A” indicates maximum degradation ≥75%) |
| < 10 | < 50 | > 1000 | Cc1ncsc1-c1ccc([C@H](C)NC(=O)[C@@H]2C[C@@H](O)CN2C(=O)[C@@H](c2cc(-c3cnc(N4CC5(CC(c6sc7nnc(-c8ccccc8O)cc7c6C)C5)C4)nc3)no2)C(C)C)cc1 [Compound 46, (2S,4R)-4-hydroxy-1-((R)-2-(3-(2-(6-(3-(2-hydroxyphenyl)-5-methylthieno[2,3-c]pyridazin-6-yl)-2-azaspiro[3.3]heptan-2-yl)pyrimidin-5-yl)isoxazol-5-yl)-3-methylbutanoyl)-N-((S)-1-(4-(4-methylthiazol-5-yl)phenyl)ethyl)pyrrolidine-2-carboxamide] | A (“A” indicates maximum degradation ≥75%) |
| > 1000 | < 50 | > 1000 | Cc1ncsc1-c1ccc([C@H](C)NC(=O)[C@@H]2C[C@@H](O)CN2C(=O)[C@@H](c2cc(-c3cnc(N4CCC(c5sc6nnc(-c7cccc(Cl)c7O)cc6c5C)CC4)nc3)no2)C(C)C)cc1 [Compound 29, (2S,4R)-1-((R)-2-(3-(2-(4-(3-(3-chloro-2-hydroxyphenyl)-5-methylthieno[2,3-c]pyridazin-6-yl)piperidin-1-yl)pyrimidin-5-yl)isoxazol-5-yl)-3-methylbutanoyl)-4-hydroxy-N-((S)-1-(4-(4-methylthiazol-5-yl)phenyl)ethyl)pyrrolidine-2-carboxamide] | C (“C” indicates maximum degradation <50%) |
